According to ChEMBL document CHEMBL1147544, “N-alkyl-4-[(8-azabicyclo[3.2.1]-oct-3-ylidene)phenylmethyl]benzamides, micro and delta opioid agonists: a micro address” (Bioorg Med Chem Lett, 2004):

What was measured:
Mu-type opioid receptor [1] = molecular target: T1, Mu-type opioid receptor (Homo sapiens, UniProt P35372); assay: In vitro binding affinity towards opioid receptor mu 1; parameters: species or system unidentified
[2] = molecular target: Delta-type opioid receptor (Homo sapiens, UniProt P41143); assay: In vitro binding affinity towards opioid receptor delta 1
Delta-type opioid receptor, sequence (P41143 whole entry): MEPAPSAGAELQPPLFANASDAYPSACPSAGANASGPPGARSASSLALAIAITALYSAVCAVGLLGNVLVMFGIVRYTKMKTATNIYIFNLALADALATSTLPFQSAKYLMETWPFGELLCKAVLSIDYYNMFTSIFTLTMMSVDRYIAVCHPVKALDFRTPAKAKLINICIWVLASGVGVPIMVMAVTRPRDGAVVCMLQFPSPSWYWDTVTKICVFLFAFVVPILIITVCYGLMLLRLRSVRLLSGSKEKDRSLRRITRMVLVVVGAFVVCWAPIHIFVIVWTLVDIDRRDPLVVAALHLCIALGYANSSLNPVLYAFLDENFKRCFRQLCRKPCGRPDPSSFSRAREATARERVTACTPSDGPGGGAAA

Mus musculus = assay: Antinociceptive activity by mouse hotplate test (55 degree C, po ); type: functional
Mu-type opioid receptor [3] = molecular target: T1, Mu-type opioid receptor; assay: Percentage stimulation of [35S]GTP-gamma-S, binding at the opioid receptor mu 1 at 10 uM; type: functional

T1 sequence (P35372 whole entry): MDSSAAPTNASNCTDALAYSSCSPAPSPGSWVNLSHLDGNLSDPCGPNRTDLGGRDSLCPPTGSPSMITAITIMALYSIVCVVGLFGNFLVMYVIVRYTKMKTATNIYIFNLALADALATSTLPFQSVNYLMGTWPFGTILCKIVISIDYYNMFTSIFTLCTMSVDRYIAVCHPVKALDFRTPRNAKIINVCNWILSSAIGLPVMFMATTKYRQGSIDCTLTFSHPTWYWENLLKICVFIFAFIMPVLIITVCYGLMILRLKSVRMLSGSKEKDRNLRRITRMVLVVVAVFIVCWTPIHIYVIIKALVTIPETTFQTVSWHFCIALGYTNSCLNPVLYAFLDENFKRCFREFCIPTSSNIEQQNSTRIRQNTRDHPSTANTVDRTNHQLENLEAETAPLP

**Q.** How did the Ki (Mu-type opioid receptor [1]) turn out when CCNC(=O)c1ccc(C(=C2CC3CCC(C2)N3CCc2ccccc2)c2cccc(O)c2)cc1 was run?
**A.** 0.000222 µM

**Q.** Which Ki [2] does the source give for O=C(NCCF)c1ccc(C(=C2CC3CCC(C2)N3CCc2ccccc2)c2ccccc2)cc1 here?
**A.** 0.032 µM

**Q.** What about the Ki (Mu-type opioid receptor [1]) of the same molecule?
**A.** 0.00299 µM

**Q.** How did the Ki [2] turn out when COCCNC(=O)c1ccc(C(=C2CC3CCC(C2)N3CCc2ccccc2)c2ccccc2)cc1 was run?
**A.** 0.103 µM

**Q.** What about the Ki (Mu-type opioid receptor [1]) of the same molecule?
**A.** 0.163 µM

**Q.** With CCNC(=O)c1ccc(C(=C2CC3CCC(C2)N3Cc2ccccn2)c2ccccc2)cc1 as the molecule, how does the Ki [2] read?
**A.** 0.00086 µM

**Q.** What about the Ki (Mu-type opioid receptor [1]) of the same molecule?
**A.** 0.017 µM

**Q.** NC(=O)c1ccc(C(=C2CC3CCC(C2)N3CCc2ccccc2)c2ccccc2)cc1 was tested. Which Ki [2] did it give?
**A.** 0.0359 µM

**Q.** And the Ki (Mu-type opioid receptor [1])?
**A.** 0.0396 µM

**Q.** Which Ki [2] does the source give for CCNC(=O)c1ccc(C(=C2CC3CCC(C2)N3CCc2ccccc2)c2cccc(OC)c2)cc1 here?
**A.** 0.0198 µM

**Q.** What about the Ki (Mu-type opioid receptor [1]) of the same molecule?
**A.** 0.000654 µM

**Q.** Which results are given for CCNC(=O)c1ccc(C(=C2CC3CCC(C2)N3CCc2ccccc2)c2ccc(OC)cc2)cc1?
**A.** Ki [2]: 0.0113 µM; Ki (Mu-type opioid receptor [1]): 0.0061 µM

**Q.** Which results are given for CCNC(=O)c1ccc(C(=C2CC3CCC(C2)N3CCO)c2ccccc2)cc1?
**A.** Ki [2]: 0.0262 µM; Ki (Mu-type opioid receptor [1]): 0.076 µM

**Q.** Which Ki [2] does the source give for CCNC(=O)c1ccc(C(=C2CC3CCC(C2)N3)c2ccc(O)cc2)cc1 here?
**A.** 0.0045 µM

**Q.** And the Ki (Mu-type opioid receptor [1])?
**A.** 0.265 µM

**Q.** What does the source list for C=CCN1C2CCC1CC(=C(c1ccc(C(=O)NCC)cc1)c1cccc(OC)c1)C2?
**A.** Ki [2]: 0.00145 µM; Ki (Mu-type opioid receptor [1]): 0.0138 µM

**Q.** With CCNC(=O)c1ccc(C(=C2CC3CCC(C2)N3c2cccn2C)c2ccccc2)cc1 as the molecule, how does the Ki [2] read?
**A.** 0.0208 µM

**Q.** And the Ki (Mu-type opioid receptor [1])?
**A.** 0.059 µM

**Q.** CCNC(=O)c1ccc(C(=C2CC3CCC(C2)N3Cc2ccccc2Cl)c2ccc(O)cc2)cc1 was tested. Which Ki [2] did it give?
**A.** 0.00093 µM

**Q.** What about the Ki (Mu-type opioid receptor [1]) of the same molecule?
**A.** 0.00872 µM

**Q.** Which results are given for CCNC(=O)c1ccc(C(=C2CC3CCC(C2)N3)c2cccc(OC)c2)cc1?
**A.** Ki [2]: 0.0132 µM; Ki (Mu-type opioid receptor [1]): 0.096 µM

**Q.** Which ED50 (Mus musculus) does the source give for CCN(CC)C(=O)c1ccc(/C(=C2\C[C@H]3CC[C@@H](C2)N3CCc2ccccc2)c2ccccc2)cc1 here?
**A.** 25 µmol/kg

**Q.** Which Ki [2] does the source give for CNC(=O)c1ccc(C(=C2CC3CCC(C2)N3CCc2ccccc2)c2ccccc2)cc1 here?
**A.** 0.013 µM

**Q.** What about the Ki (Mu-type opioid receptor [1]) of the same molecule?
**A.** 0.00014 µM

**Q.** Which Ki [2] does the source give for CCNC(=O)c1ccc(C(=C2CC3CCC(C2)N3Cc2cccs2)c2cccc(OC)c2)cc1 here?
**A.** 0.00051 µM

**Q.** What about the Ki (Mu-type opioid receptor [1]) of the same molecule?
**A.** 0.00379 µM

**Q.** With CCNC(=O)c1ccc(C(=C2CC3CCC(C2)N3Cc2cccs2)c2cccc(O)c2)cc1 as the molecule, how does the Ki [2] read?
**A.** 0.000152 µM

**Q.** And the Ki (Mu-type opioid receptor [1])?
**A.** 0.000664 µM

**Q.** CCNC(=O)c1ccc(C(=C2CC3CCC(C2)N3CC=C(C)C)c2cccc(O)c2)cc1 was tested. Which Ki [2] did it give?
**A.** 0.00202 µM

**Q.** And the Ki (Mu-type opioid receptor [1])?
**A.** 0.00252 µM

**Q.** How did the Ki [2] turn out when CCNC(=O)c1ccc(C(=C2CC3CCC(C2)N3Cc2ccccc2Cl)c2ccc(OC)cc2)cc1 was run?
**A.** 0.00567 µM

**Q.** What about the Ki (Mu-type opioid receptor [1]) of the same molecule?
**A.** 0.122 µM

**Q.** With CCNC(=O)c1ccc(C(=C2CC3CCC(C2)N3CCCc2ccccc2)c2ccccc2)cc1 as the molecule, how does the Ki [2] read?
**A.** 0.0123 µM

**Q.** And the Ki (Mu-type opioid receptor [1])?
**A.** 0.0048 µM

**Q.** For CCNC(=O)c1ccc(C(=C2CC3CCC(C2)N3Cc2[nH]cnc2C)c2ccccc2)cc1, which Ki [2] is on record?
**A.** 0.0159 µM

**Q.** And the Ki (Mu-type opioid receptor [1])?
**A.** 0.061 µM

**Q.** Which results are given for C=CCN1C2CCC1CC(=C(c1ccc(C(=O)NCC)cc1)c1cccc(O)c1)C2?
**A.** Ki [2]: 0.000384 µM; Ki (Mu-type opioid receptor [1]): 0.00958 µM

**Q.** Which Ki [2] does the source give for C=CCN1[C@@H]2CC[C@H]1C/C(=C(\c1ccccc1)c1ccc(C(=O)NCC)cc1)C2 here?
**A.** 0.00772 µM

**Q.** And the Ki (Mu-type opioid receptor [1])?
**A.** 0.0191 µM

**Q.** With CCNC(=O)c1ccc(/C(=C2/C[C@H]3CC[C@@H](C2)N3C)c2ccccc2)cc1 as the molecule, how does the Ki [2] read?
**A.** 0.00639 µM

**Q.** And the Ki (Mu-type opioid receptor [1])?
**A.** 0.0425 µM

**Q.** For O=C(Nc1ccccc1)c1ccc(C(=C2CC3CCC(C2)N3CCc2ccccc2)c2ccccc2)cc1, which Ki [2] is on record?
**A.** 1.52 µM

**Q.** What about the Ki (Mu-type opioid receptor [1]) of the same molecule?
**A.** 4.24 µM

**Q.** For CCNC(=O)c1ccc(C(=C2CC3CCC(C2)N3CC=C(C)C)c2cccc(OC)c2)cc1, which Ki [2] is on record?
**A.** 0.00072 µM

**Q.** And the Ki (Mu-type opioid receptor [1])?
**A.** 0.00204 µM

**Q.** Which Ki [2] does the source give for CCNC(=O)c1ccc(/C(=C2/C[C@H]3CC[C@@H](C2)N3CCc2ccccc2)c2ccccc2)cc1 here?
**A.** 0.00469 µM

**Q.** What about the Ki (Mu-type opioid receptor [1]) of the same molecule?
**A.** 0.00716 µM

**Q.** CCNC(=O)c1ccc(C(=C2CC3CCC(C2)N3CCOc2ccccc2)c2ccccc2)cc1 was tested. Which Ki [2] did it give?
**A.** 0.0634 µM

**Q.** What about the Ki (Mu-type opioid receptor [1]) of the same molecule?
**A.** 0.093 µM

**Q.** Which Ki [2] does the source give for CCCNC(=O)c1ccc(C(=C2CC3CCC(C2)N3CCc2ccccc2)c2ccccc2)cc1 here?
**A.** 0.022 µM

**Q.** And the Ki (Mu-type opioid receptor [1])?
**A.** 0.0016 µM

**Q.** CCNC(=O)c1ccc(C(=C2CC3CCC(C2)N3Cc2ccccc2Cl)c2cccc(O)c2)cc1 was tested. Which Ki [2] did it give?
**A.** 0.00209 µM

**Q.** And the Ki (Mu-type opioid receptor [1])?
**A.** 0.015 µM

**Q.** For CCNC(=O)c1ccc(C(=C2CC3CCC(C2)N3Cc2cccs2)c2ccc(OC)cc2)cc1, which Ki [2] is on record?
**A.** 0.00132 µM

**Q.** And the Ki (Mu-type opioid receptor [1])?
**A.** 0.0135 µM

**Q.** CCNC(=O)c1ccc(/C(=C2\C[C@H]3CC[C@@H](C2)N3CCc2ccccc2)c2ccccc2)cc1 was tested. Which ED50 (Mus musculus) did it give?
**A.** 25 µmol/kg

**Q.** And the Ki [2]?
**A.** 0.0467 µM

**Q.** And the Ki (Mu-type opioid receptor [1])?
**A.** 0.00026 µM

**Q.** What about the Stimulation (Mu-type opioid receptor [3]) of the same molecule?
**A.** 490%

**Q.** How did the Ki [2] turn out when CCNC(=O)c1ccc(C(=C2CC3CCC(C2)N3CCc2ccccc2)c2ccc(O)cc2)cc1 was run?
**A.** 0.0078 µM

**Q.** What about the Ki (Mu-type opioid receptor [1]) of the same molecule?
**A.** 0.0217 µM

**Q.** For CCNC(=O)c1ccc(C(=C2CC3CCC(C2)N3Cc2cccs2)c2ccc(O)cc2)cc1, which Ki [2] is on record?
**A.** 0.00025 µM

**Q.** What about the Ki (Mu-type opioid receptor [1]) of the same molecule?
**A.** 0.00677 µM

**Q.** Which Ki [2] does the source give for CCNC(=O)c1ccc(/C(=C2/C[C@H]3CC[C@@H](C2)N3)c2ccccc2)cc1 here?
**A.** 0.00548 µM

**Q.** What about the Ki (Mu-type opioid receptor [1]) of the same molecule?
**A.** 0.0747 µM

**Q.** What does the source list for CCNC(=O)c1ccc(/C(=C2\C[C@H]3CC[C@@H](C2)N3C)c2ccccc2)cc1?
**A.** Ki [2]: 0.292 µM; Ki (Mu-type opioid receptor [1]): 0.304 µM

**Q.** For O=C(NC1CCCCC1)c1ccc(C(=C2CC3CCC(C2)N3CCc2ccccc2)c2ccccc2)cc1, which Ki [2] is on record?
**A.** 0.924 µM

**Q.** And the Ki (Mu-type opioid receptor [1])?
**A.** 0.717 µM

**Q.** O=C(Nc1nccs1)c1ccc(C(=C2CC3CCC(C2)N3CCc2ccccc2)c2ccccc2)cc1 was tested. Which Ki [2] did it give?
**A.** 0.0495 µM

**Q.** And the Ki (Mu-type opioid receptor [1])?
**A.** 0.053 µM

**Q.** CCNC(=O)c1ccc(C(=C2CC3CCC(C2)N3Cc2c[nH]cn2)c2ccccc2)cc1 was tested. Which Ki [2] did it give?
**A.** 0.00388 µM

**Q.** And the Ki (Mu-type opioid receptor [1])?
**A.** 0.101 µM

**Q.** CCNC(=O)c1ccc(C(=C2CC3CCC(C2)N3CCc2c[nH]c3ccccc23)c2ccccc2)cc1 was tested. Which Ki [2] did it give?
**A.** 0.0237 µM

**Q.** What about the Ki (Mu-type opioid receptor [1]) of the same molecule?
**A.** 0.084 µM

**Q.** How did the Ki [2] turn out when CCCCNC(=O)c1ccc(C(=C2CC3CCC(C2)N3CCc2ccccc2)c2ccccc2)cc1 was run?
**A.** 0.0493 µM

**Q.** And the Ki (Mu-type opioid receptor [1])?
**A.** 0.0217 µM

**Q.** For CCNC(=O)c1ccc(C(=C2CC3CCC(C2)N3Cc2ccccc2Cl)c2cccc(OC)c2)cc1, which Ki [2] is on record?
**A.** 0.00666 µM

**Q.** What about the Ki (Mu-type opioid receptor [1]) of the same molecule?
**A.** 0.0577 µM

**Q.** What does the source list for C=CCN1[C@@H]2CC[C@H]1C/C(=C(/c1ccccc1)c1ccc(C(=O)NCC)cc1)C2?
**A.** Ki [2]: 0.00224 µM; Ki (Mu-type opioid receptor [1]): 0.0105 µM

**Q.** With O=C(NC1CC1)c1ccc(C(=C2CC3CCC(C2)N3CCc2ccccc2)c2ccccc2)cc1 as the molecule, how does the Ki [2] read?
**A.** 0.02 µM

**Q.** What about the Ki (Mu-type opioid receptor [1]) of the same molecule?
**A.** 0.00101 µM

**Q.** What does the source list for CC(C)(C)NC(=O)c1ccc(C(=C2CC3CCC(C2)N3CCc2ccccc2)c2ccccc2)cc1?
**A.** Ki [2]: 0.352 µM; Ki (Mu-type opioid receptor [1]): 0.608 µM
